# Data taken from patent US12194177B2, “Systems and methods for delivering chlorine dioxide using a liquid curtain” (Sabre IP Acquistionco, LLC, priority 2019, dated 2025).
# Assays:
# [1] = Chlorine dioxide retention in liquid treatment solution, curtain application method; format: physicochemical; details: for Average ClO2 loss in ppm (±STDEV): location A minus location D; for Average ClO2 concentration in ppm (±STDEV): curtain, ambient 65-70 °F
# Text: (§1) In this example, two methods for applying a liquid chlorine dioxide treatment solution were compared with a chlorine dioxide treatment solution having the same volume and initial chlorine dioxide concentration, and using a system with the same delivery rate. One method was a curtain delivery method and the other method was a low-pressure spray method.
# (§2) For both the methods a 330-gallon tote was used as the source fluid reservoir. The tote was filled with about 75 gallons of fresh water and also contained submersible sump-pump that provided the fluid flow to the system. A 6.6 gallon per minute (GPM) rotameter was in line between the pump and the chlorine dioxide delivery system that delivered a concentrated solution of chlorine dioxide (˜1700 ppm) so as to make a liquid chlorine dioxide treatment solution containing an initial concentration (approximately 5 ppm) of chlorine dioxide. The delivery system sat over an aluminum sheet on a slight gradient, to provide a homogenous flow pathway of the treatment solution. The aluminum sheet allowed the treatment fluid to cascade back into the tote for recirculation. During experimentation, the rotameter was set to allow for approximately 4 GPM ([…]) of constant flow, achieved by slight pinching of a ball valve in line and downstream of the rotameter. The treatment solution was circulated through the system for a few minutes and if needed, additional concentrated solution was added to achieve the initial concentration (approximately 5 ppm chlorine dioxide) in the treatment solution before experimental runs commenced.
# For the curtain application, a rain gutter was modified to serve as a trough for the fluid to fill into. The front wall of the trough was modified; it was slightly shorter and was rounded to achieve laminar or predominantly laminar flow of the fluid over the wall of the trough and down over the target belt (belt to be used for moving eggs or other products to be treated with the treatment solution). The trough also contained pieces of plastics filter media (a type of baffle) that converted the turbulent flow of the trough being filled to more homogenous, laminar flow allowing a sheer curtain or waterfall effect to be achieved consistently across the entire length of the trough, such that the curtain fell onto the target belt. […] The curtain was about 11″ in height and approximately 2-2.5 feet wide.
# (§3) Each application method was tested in multiple runs in which the liquid chlorine dioxide treatment solution was maintained at a particular target temperature (approximately 120° F. (this is the high temperature curtain or spray as referred to in Table 3) or a temperature of 60-75° F. (this is the low temperature curtain or spray as referred to in Table 3)).
# (§4) For the curtain application method, the fluid was sampled at four locations: (A) from the hose that delivered treatment solution into the trough, (B) where the fluid entered the trough (C) within the trough near the exit where fluid flowed out of the trough to form the curtain, (D) where the fluid of the curtain fell onto the belt. For the spray application, the fluid was sampled at three locations: (A) from the hose that delivered treatment solution into the sprayer nozzle, (B) from the fluid as it exited the sprayer nozzle, (C) where the fluid of the spray fell onto the belt.
# (§5) Chlorine dioxide concentrations were determined using the Palintest ChlordioX Plus device in accordance with the manufacturer's instructions.
# [2] = Chlorine dioxide retention in liquid treatment solution, low-pressure spray application method; format: physicochemical; details: for Average ClO2 loss in ppm (±STDEV): location A minus location C; for Average ClO2 concentration in ppm (±STDEV): spray, ambient 65-70 °F
# Text: as §1, §2
# For the spray application, a series of nozzles were used to apply the treatment solution.
# as §3, §4, §5
structure (smiles),measurement,setting,value
"[O][Cl+][O-] [ClO2, chlorine dioxide]",Average ClO2 loss in ppm (±STDEV),[1]; Curtain with high temperature (approximately 120 °F),1.95 ± 0.58 ppm
same,Average ClO2 loss in ppm (±STDEV),[1]; Curtain with low temperature (60-75 °F),1.37 ± 0.27 ppm
same,Average ClO2 concentration in ppm (±STDEV),"[1]; treatment fluid 65-75 °F, location A (hose delivering treatment solution into trough)",4.88 ± 0.87 ppm
same,Average ClO2 concentration in ppm (±STDEV),"[1]; treatment fluid 65-75 °F, location B (where fluid entered the trough)",4.91 ± 0.83 ppm
same,Average ClO2 concentration in ppm (±STDEV),"[1]; treatment fluid 65-75 °F, location C (within trough near the exit)",4.39 ± 0.79 ppm
same,Average ClO2 concentration in ppm (±STDEV),"[1]; treatment fluid 65-75 °F, location D (where curtain fell onto the belt)",3.51 ± 0.68 ppm
same,Average ClO2 concentration in ppm (±STDEV),"[1]; treatment fluid 110-120 °F, location A (hose delivering treatment solution into trough)",5.28 ± 0.59 ppm
same,Average ClO2 concentration in ppm (±STDEV),"[1]; treatment fluid 110-120 °F, location B (where fluid entered the trough)",4.70 ± 0.28 ppm
same,Average ClO2 concentration in ppm (±STDEV),"[1]; treatment fluid 110-120 °F, location C (within trough near the exit)",4.51 ± 0.52 ppm
same,Average ClO2 concentration in ppm (±STDEV),"[1]; treatment fluid 110-120 °F, location D (where curtain fell onto the belt)",3.34 ± 0.58 ppm
same,Average ClO2 loss in ppm (±STDEV),[2]; Spray with high temperature (approximately 120 °F),3.24 ± 0.67 ppm
same,Average ClO2 loss in ppm (±STDEV),[2]; Spray with low temperature (60-75 °F),1.44 ± 0.38 ppm
same,Average ClO2 concentration in ppm (±STDEV),"[2]; treatment fluid 60-70 °F, location A (hose delivering treatment solution into sprayer nozzle)",4.86 ± 0.54 ppm
same,Average ClO2 concentration in ppm (±STDEV),"[2]; treatment fluid 60-70 °F, location B (fluid as it exited the sprayer nozzle)",4.34 ± 0.71 ppm
same,Average ClO2 concentration in ppm (±STDEV),"[2]; treatment fluid 60-70 °F, location C (where spray fell onto the belt)",3.43 ± 0.61 ppm
same,Average ClO2 concentration in ppm (±STDEV),"[2]; treatment fluid 110-120 °F, location A (hose delivering treatment solution into sprayer nozzle)",5.28 ± 0.58 ppm
same,Average ClO2 concentration in ppm (±STDEV),"[2]; treatment fluid 110-120 °F, location B (fluid as it exited the sprayer nozzle)",3.57 ± 0.53 ppm
same,Average ClO2 concentration in ppm (±STDEV),"[2]; treatment fluid 110-120 °F, location C (where spray fell onto the belt)",2.04 ± 0.45 ppm
